From patent publication US20140329682A1, “METHOD OF CONTROLLING WEED IN A SUGAR CANE FIELD” (SUMITOMO CHEMICAL COMPANY, LIMITED, priority 2011, published 2014)

Experiments:
Amaranthus retroflexus [1] = test: Herbicidal activity, spray above weed before planting, azole-fungicide-treated stem cutting (Example 11); format: in vivo; conditions: sprayed above weed, 3 cm stem cutting treated with azaconazole, bitertanol or another listed azole-type fungicide planted one week after treatment, four weeks after treatment
Experimental: A soil is packed into a plastic pat, and seeds of Amaranthus retroflexus are seeded thereon. Thereafter, the pot is placed in a greenhouse, and the weed is grown.

Amaranthus retroflexus [2] = test: Herbicidal activity, soil surface spray, azole-fungicide-treated stem cutting (Example 10); format: in vivo; conditions: 3 cm stem cutting treated with azaconazole, bitertanol or another listed azole-type fungicide, four weeks after treatment
sugar cane [3] = test: Phytotoxicity on sugar cane, soil surface spray, metalaxyl-treated stem cutting (Example 12)
Excerpt: (§1) The “phytotoxicity” evaluated herein is the damage characteristic determined to be due to a treated compound, and is clearly discriminated from the damage characteristic caused by a harmful animal or plant disease.
(§2) A 30 cm to 40 cm stem cutting of sugar cane is placed on a wet soil, and germination is stimulated. The stem cutting from which a bud has grown to about 1 cm is selected, and the length of the stem cutting is adjusted to be 3 cm so that the stem cutting has one node. Metalaxyl or metalaxyl-M is adhered to the stem cutting. A soil is packed into a plastic pot. Seeds of Amaranthus retroflexus are seeded thereon. The stem cutting of sugar cane treated with metalaxyl or metalaxyl-M is planted in the soil packed into the pot at a depth of 2 cm. […] Thereafter, the pot for a test is placed in a greenhouse.

sugar cane [4] = test: Phytotoxicity on sugar cane, spray above weed before planting, strobilurin-treated stem cutting (Example 9)
Experimental: as §1
(§3) A soil is packed into a plastic pot, and seeds of Amaranthus retroflexus are seeded thereon. Thereafter, the pot is placed in a greenhouse, and the weed is grown.
A 30 cm to 40 cm stem cutting of sugar cane is placed on a wet soil, and germination is stimulated. The stem cutting from which a bud has grown to about 1 cm is selected, and the length of the stem cutting is adjusted to be 3 cm so that the stem cutting has one node. Kresoxim-methyl, azoxystrobin, trifloxystrobin, fluoxastrobin, picoxystrobin, pyraclostrobin, dimoxystrobin, pyribencarb, metominostrobin, orysastrobin, enestrobin, pyraoxystrobin or pyrametostrobin is adhered to the stem cutting.
(§4) The pot for a test is placed in a greenhouse.

Amaranthus retroflexus [5] = test: Herbicidal activity, spray above weed before planting, metalaxyl-treated stem cutting (Example 13); format: in vivo; conditions: sprayed above weed, 3 cm stem cutting treated with metalaxyl or metalaxyl-M planted one week after treatment, four weeks after treatment
sugar cane [6] = test: Phytotoxicity on sugar cane, soil surface spray, insecticide-treated stem cutting (Example 6)
Excerpt: as §1
as §2, with “Clothianidin, thiamethoxiam, imidacloprid, dinotefuran, nitenpyram, acetamiprid” for “Metalaxyl”, “thiacloprid” for “metalaxyl-M”, “pot, and seeds” for “pot. Seeds”, “clothianidin, thiamethoxiam, imidacloprid, dinotefuran, nitenpyram, acetamiprid” for “metalaxyl”

Amaranthus retroflexus [7] = test: Herbicidal activity, spray above weed one week before planting (Example 5); format: in vivo; conditions: sprayed above weed three weeks after seeding, 3 cm stem cutting planted one week after treatment, four weeks after treatment
sugar cane [8] = test: Phytotoxicity on sugar cane, soil surface spray, azole-fungicide-treated stem cutting (Example 10)
Excerpt: as §1
A 30 to 40 cm stem cutting of sugar cane is placed on a wet soil, and germination is stimulated. The stem cutting from which a bud has grown to about 1 cm is selected, and the length of the stem cutting is adjusted to be 3 cm so that the stem cutting has one node. Azaconazole, bitertanol, bromoconazole, cyproconazole, difenoconazole, diniconazole, epoxyconazole, fenbuconazole, fluquinconazole, flusilazole, flutriafol, hexaconazole, imibenconazole, ipconazole, metconazole, myclobutanil, penconazole, propiconazole, prothioconazole, simeconazole, tebuconazole, tetraconazole, triadimenol, triticonazole, fenarimol, nuarimol, pyrifenox, imazalil, oxpoconazole fumarate, pefurazoate, procloraz or triflumizole is adhered to the stem cutting. A soil is packed into a plastic pot, and seeds of Amaranthus retroflexus are seeded thereon. The stem cutting of sugar cane treated with azaconazole, bitertanol, bromoconazole, cyproconazole, difenoconazole, diniconazole, epoxyconazole, fenbuconazole, fluquinconazole, flusilazole, flutriafol, hexaconazole, imibenconazole, ipconazole, metconazole, myclobutanil, penconazole, propiconazole, prothioconazole, simeconazole, tebuconazole, tetraconazole, triadimenol, triticonazole, fenarimol, nuarimol, pyrifenox, imazalil, oxpoconazole fumarate, pefurazoate, procloraz or triflumizole is planted in the soil packed into the pot at a depth of 2 cm. […] Thereafter, the pot for a test is placed in a greenhouse.

Amaranthus retroflexus [9] = test: Herbicidal activity, soil surface spray, metalaxyl-treated stem cutting (Example 12); format: in vivo; conditions: 3 cm stem cutting treated with metalaxyl or metalaxyl-M, four weeks after treatment
Experimental: A soil is packed into a plastic pot. Seeds of Amaranthus retroflexus are seeded thereon.

Amaranthus retroflexus [10] = test: Herbicidal activity, spray above weed before planting, strobilurin-treated stem cutting (Example 9); format: in vivo; conditions: sprayed above weed, 3 cm stem cutting treated with kresoxim-methyl, azoxystrobin or another listed strobilurin fungicide planted one week after treatment, four weeks after treatment
Amaranthus retroflexus [11] = test: Herbicidal activity, soil surface spray, strobilurin-treated stem cutting (Example 8); format: in vivo; conditions: 3 cm stem cutting treated with kresoxim-methyl, azoxystrobin or another listed strobilurin fungicide, four weeks after treatment
Excerpt: A 30 cm to 40 cm stem cutting of sugar cane is placed on a wet soil, and germination is stimulated. The stem cutting from which a bud has grown to about 1 cm is selected, and the length of the stem cutting is adjusted to be 3 cm so that the stem cutting has one node. Kresoxim-methyl, azoxystrobin, trifloxystrobin, fluoxastrobin, picoxystrobin, pyraclostrobin, dimoxystrobin, pyribencarb, metominostrobin, orysastrobin, enestrobin, pyraoxystrobin or pyrametostrobin is adhered to the stem cutting. A soil is packed into a plastic pot, and seeds of Amaranthus retroflexus are seeded thereon. The stem cutting of sugar cane treated with kresoxim-methyl, azoxystrobin, trifloxystrobin, fluoxastrobin, picoxystrobin, pyraclostrobin, dimoxystrobin, pyribencarb, metominostrobin, orysastrobin, enestrobin, pyraoxystrobin or pyrametostrobin is planted in the soil packed into the pot at a depth of 2 cm. […] Thereafter, the pot for a test is placed in a greenhouse.

sugar cane [12] = test: Phytotoxicity on sugar cane, spray above weed before planting, metalaxyl-treated stem cutting (Example 13)
Experimental: as §1
A soil is packed into a plastic pot, and seeds of Amaranthus retroflexus are seeded thereon. Thereafter, a pot is placed in a greenhouse, and the weed is grown.
A 30 cm to 40 cm stem cutting of sugar cane is placed on a wet soil, and germination is stimulated. The stem cutting from which a bud has grown to about 1 cm is selected, and the length of the stem cutting is adjusted to be 3 cm so that the stem cutting has one node. Metalaxyl or metalaxyl-M is adhered to the stem cutting.
as §4

sugar cane [13] = test: Phytotoxicity on sugar cane, spray above weed one week before planting (Example 5)
Experimental: as §1, §3
A 30 cm to 40 cm stem cutting of sugar cane is placed on a wet soil, and germination is stimulated. The stem cutting from which a bud has been grown to about 1 cm is selected, and the length of the stem cutting is adjusted to be 3 cm so that the stem cutting has one node.
as §4

Amaranthus retroflexus [14] = test: Herbicidal activity, soil surface spray, insecticide-treated stem cutting (Example 6); format: in vivo; conditions: 3 cm stem cutting treated with clothianidin, thiamethoxiam, imidacloprid, dinotefuran, nitenpyram, acetamiprid or thiacloprid, four weeks after treatment
Experimental: A 30 cm to 40 cm stem cutting of sugar cane is placed on a wet soil, and germination is stimulated. The stem cutting from which a bud has grown to about 1 cm is selected, and the length of the stem cutting is adjusted to be 3 cm so that the stem cutting has one node. Clothianidin, thiamethoxiam, imidacloprid, dinotefuran, nitenpyram, acetamiprid or thiacloprid is adhered to the stem cutting. A soil is packed into a plastic pot, and seeds of Amaranthus retroflexus are seeded thereon. The stem cutting of sugar cane treated with clothianidin, thiamethoxiam, imidacloprid, dinotefuran, nitenpyram, acetamiprid or thiacloprid is planted in the soil packed into the pot at a depth of 2 cm. […] Thereafter, the pot for a test is placed in a greenhouse.

SMILES | herbicidal activity against Amaranthus retroflexus (Amaranthus retroflexus [1]) | herbicidal activity against Amaranthus retroflexus (Amaranthus retroflexus [2]) | phytotoxicity (sugar cane [3]; Example 12, 3 cm stem cutting treated with metalaxyl or metalaxyl-M, soil surface spray, four weeks after treatment) | phytotoxicity (sugar cane [4]; Example 9, sprayed above weed, 3 cm stem cutting treated with kresoxim-methyl, azoxystrobin or another listed strobilurin fungicide planted one week after treatment, four weeks after treatment) | herbicidal activity against Amaranthus retroflexus (Amaranthus retroflexus [5]) | phytotoxicity (sugar cane [6]; Example 6, 3 cm stem cutting treated with clothianidin, thiamethoxiam, imidacloprid, dinotefuran, nitenpyram, acetamiprid or thiacloprid, soil surface spray, four weeks after treatment) | herbicidal activity against Amaranthus retroflexus (Amaranthus retroflexus [7]) | phytotoxicity (sugar cane [8]; Example 10, 3 cm stem cutting treated with azaconazole, bitertanol or another listed azole-type fungicide, soil surface spray, four weeks after treatment) | herbicidal activity against Amaranthus retroflexus (Amaranthus retroflexus [9]) | herbicidal activity against Amaranthus retroflexus (Amaranthus retroflexus [10]) | herbicidal activity against Amaranthus retroflexus (Amaranthus retroflexus [11]) | phytotoxicity (sugar cane [12]; Example 13, sprayed above weed, 3 cm stem cutting treated with metalaxyl or metalaxyl-M planted one week after treatment, four weeks after treatment) | phytotoxicity (sugar cane [13]; Example 5, sprayed above weed three weeks after seeding, 3 cm stem cutting planted one week after treatment, four weeks after treatment) | herbicidal activity against Amaranthus retroflexus (Amaranthus retroflexus [14]) | phytotoxicity (sugar cane [3]; in vivo) | phytotoxicity (sugar cane [4]; in vivo) | phytotoxicity (sugar cane [6]; in vivo) | phytotoxicity (sugar cane [8]; in vivo) | phytotoxicity (sugar cane [12]; in vivo) | phytotoxicity (sugar cane [13]; in vivo)
CCOc1cc(Oc2ccc(C(F)(F)F)cc2Cl)ccc1[N+](=O)[O-] [oxyfluorfen] | the controlling effect on a weed can be confirmed | the control effect on a weed can be confirmed | significant phytotoxicity on sugar cane is not observed | significant phytotoxicity on sugar cane is not observed | the controlling effect on a weed can be confirmed | significant phytotoxicity on sugar cane is not observed | the controlling effect on a weed can be confirmed | significant phytotoxicity on sugar cane is not observed | the controlling effect on a weed can be confirmed | the controlling effect on a weed can be confirmed | the controlling effect on a weed can be confirmed | significant phytotoxicity on sugar cane is not observed | significant phytotoxicity on sugar cane is not found | the controlling effect on a weed can be confirmed | – | – | – | – | – | –
Cc1nn(-c2cc(NS(C)(=O)=O)c(Cl)cc2Cl)c(=O)n1C(F)F [sulfentrazone] | the controlling effect on a weed can be confirmed | the control effect on a weed can be confirmed | – | – | the controlling effect on a weed can be confirmed | – | the controlling effect on a weed can be confirmed | – | the controlling effect on a weed can be confirmed | the controlling effect on a weed can be confirmed | the controlling effect on a weed can be confirmed | – | – | the controlling effect on a weed can be confirmed | significant phytotoxicity on sugar cane is not observed | significant phytotoxicity on sugar cane is not observed | significant phytotoxicity on sugar cane is not observed | significant phytotoxicity on sugar cane is not observed | significant phytotoxicity on sugar cane is not observed | significant phytotoxicity on sugar cane is not found
